Data on one compound can be found in US5955495A, “Method of treating diseases of the CNS” (Hoffmann-La Roche Inc., priority 1997, dated 1999).

Some results are limits rather than exact numbers.

The target in one assay is T1, 5-HT2A receptor (Homo sapiens, UniProt P28223).
T1 construct: expressed in transfected cells
The assay is described as follows: [3H]-DOB binding assay (method b), affinity to the 5-HT2A receptor. The following applies: Ki from IC50 in nM, read-out: Pki (Pki=-log10 Ki), 5-HT2A, Method b (converted). The procedure:
(§1) The binding of compounds of formula I in accordance with the invention to selected serotonin […] was determined in vitro by standard methods. The preparations were investigated in accordance with the tests given hereinafter:
b) Affinity to the 5-HT2A receptor in accordance with the [3H]- DOB binding assay according to the method of T. Branchek et. al., Molecular Pharmacology 38, 604-609 (1990).
(§2) The Pki values (Pki=-log10 Ki) of the test substances are given. The Ki value is defined by the following formula: [formula] with the IC50 values being those concentrations of test compounds in nM at which 50% of the receptor-bonded ligands are displaced. [L] is the ligand concentration and the KD value is the dissocation constant of the ligand.

For assay [1], the target named is T2, 5-HT2C receptor (Rattus norvegicus, UniProt P08909).
T2 sequence (P08909 33-460): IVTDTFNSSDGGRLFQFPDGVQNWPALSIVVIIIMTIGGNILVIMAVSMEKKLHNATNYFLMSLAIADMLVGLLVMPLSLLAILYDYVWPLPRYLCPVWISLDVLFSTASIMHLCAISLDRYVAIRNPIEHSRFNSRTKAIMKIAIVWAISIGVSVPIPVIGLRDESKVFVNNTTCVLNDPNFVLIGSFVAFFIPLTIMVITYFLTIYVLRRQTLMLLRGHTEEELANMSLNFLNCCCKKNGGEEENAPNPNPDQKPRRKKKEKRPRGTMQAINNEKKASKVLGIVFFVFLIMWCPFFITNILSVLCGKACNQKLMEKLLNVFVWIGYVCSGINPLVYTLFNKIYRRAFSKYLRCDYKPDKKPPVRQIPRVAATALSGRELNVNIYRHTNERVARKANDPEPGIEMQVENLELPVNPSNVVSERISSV
The assay is described as follows: [3H]-5-HT binding assay (method a), affinity to the 5-HT2C receptor. Details: expressed in transfected cells. The following applies: Ki from IC50 in nM, read-out: Pki (Pki=-log10 Ki), 5-HT2C, Method a (converted). The procedure: as §1
a) Affinity to the 5-HT2C receptor in accordance with the [3H]-5-HT binding assay according to the method of S.J. Peroutka et al., Brain Research 584, 191-196 (1992).
as §2

For assay [2], the target named is T2, 5-HT2C receptor. The assay is described as follows: Penile erection (rats). It counts as in vivo. The following applies: po, 0.75 h, p.o., erections within 45 minutes following administration, read-out: ID50 (mg/kg) (p.o.), penile erection. On the set-up: following the administration of the test substance to the animals; from tissue; host or cells: whole living rat (in vivo). The procedure:
It has been shown that penile erection is dependent on the stimulation of 5HT2C receptors (see Berendsen & Broekkamp, Eur. J. Pharm., 135, 179-184 (1987).
The number of penile erections was determined within 45 minutes following the administration of the test substance to the animals. The ED50 is the dosage which causes 50% of these erections.

T1 sequence (P28223 whole entry): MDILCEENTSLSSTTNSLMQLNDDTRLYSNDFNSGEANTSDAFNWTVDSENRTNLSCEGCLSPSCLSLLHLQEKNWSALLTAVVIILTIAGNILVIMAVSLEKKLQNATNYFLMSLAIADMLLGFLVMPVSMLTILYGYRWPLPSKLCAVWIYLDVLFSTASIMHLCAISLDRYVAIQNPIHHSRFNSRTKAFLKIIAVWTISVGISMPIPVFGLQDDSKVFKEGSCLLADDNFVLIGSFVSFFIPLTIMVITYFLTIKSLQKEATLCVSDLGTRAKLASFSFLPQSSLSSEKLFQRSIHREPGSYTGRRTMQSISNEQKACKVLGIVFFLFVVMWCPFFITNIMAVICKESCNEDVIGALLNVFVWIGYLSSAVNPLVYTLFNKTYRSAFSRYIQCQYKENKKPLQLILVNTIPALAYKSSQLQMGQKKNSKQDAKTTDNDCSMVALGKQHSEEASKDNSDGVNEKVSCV

What is called Ki is a measure of affinity in units of concentration, obtained from inhibition or displacement. Consider `NC(=NO)c1cc2ccc(F)cc2o1` [Example 16, 6-Fluorobenzofuran-2-carboxamidoxime], for which the inhibition constant (Ki) was above 10000 nM at 5-HT2A receptor and 4370 nM on 5-HT2C receptor [1]. Also, at 5-HT2C receptor [2], the ED50 was determined as 1.6 mg/kg.
